What all share (assay type): cell-based, Wistar rats
One data set has as its system IL-1β. Description: IL-1β release in supernatants of LPS-treated primary microglial cells (ELISA). The settings on record: 72 h; for IL-1β release: LPS-treated; for IC50: Rattus norvegicus, inhibition of LPS-induced cytokine release, read-out: IL-1β IC50. As for the experimental part: (§1) Primary microglial cell cultures were prepared from brains of newborn Wistar rats. Ethics approval for the experiments was granted by the EBIOTEC Review Board (Valter Lombardi, Iván Carrera and Lucía Fernández-Novoa; Project Identification Code: Sinularia Project October 2013; approved 30 October 2013). The neocortex of one-day-old postnatal rats was aseptically dissected out, and the meninges and blood vessels were carefully removed. Following cutting in a medium containing 20% horse serum, the suspension was filtered through a […] and transferred as a single cell suspension to culture dishes, using 5.0 mL of medium per dish. The cultures were incubated at 37 °C in an atmosphere containing 5% CO2. The culture medium consisted of Minimum Essential Medium Eagle, supplemented with L-glutamine, amino acids, vitamins, penicillin, gentamicin, sodium bicarbonate and 20% heat-inactivated horse serum. The medium was changed twice a week. After 1 week, the concentration of horse serum was reduced to 10%. After sixteen days in culture, cells were treated with 1 μg/mL of lipopolysaccharide (LPS). […] Positive controls were treated only with LPS, while negative controls were treated with complete medium. After 72 h of incubation, cells were counted, and 2.5 mL of the supernatants were collected from each well and frozen at −40 °C for cytokine analyses. All experiments were carried out twice.
(§2) The supernatants obtained from cell cultures were analyzed for TNF-α, IL-1β, IL-4, IL-6, IL-8, IL-10 and IL-18 using commercially available ELISA kits following the manufacturers’ instructions. All samples were assayed in duplicate, and equivocal results were repeated. The cytokine concentration was calculated from a standard curve of the corresponding recombinant cytokine.
(§3) The cytotoxicity of the compounds was measured by the colorimetric methyl thiazol tetrazolium (MTT) assay and scored as a percentage of the absorbance reduction of treated cultures versus untreated control cultures. Primary microglial cell cultures were seeded into 96-well microplates at 10^4 cells per well and allowed to grow for 24 h. […] The compounds were serially diluted in complete culture medium with two-fold dilutions (100, 50, 25, 12.5, 6.25, 3.12 and 1.56 μg/mL for in vitro cytotoxicity; 12.5, 6.25, 3.12, 1.56, 0.78 and 0.39 μg/mL for cytokine release). Different concentrations of the compounds were added to each well, and Tamoxifen was used as a positive control, with concentrations ranging from 50 to 1.56 μg/mL. Plates were incubated at 37 °C for 72 h under 5% CO2 atmosphere. Then, the 50 μL of MTT-PBS solution in culture medium were added to each well. The plates were further incubated for 4 h under the same conditions. The medium was then removed and replaced with 200 μL of DMSO to solubilize the MTT formazan product. The solutions were shaken for 20 min, and the absorbance was measured at 570 nm. […] Each value represents the mean of triplicate determinations. The IC50 values were calculated from the compound concentration-response curves.
Background: ELISA stands for enzyme-linked immunosorbent assay.

The next data set deals with IL-6. Description: IL-6 release in supernatants of LPS-treated primary microglial cells (ELISA). The following applies: 72 h; for IL-6 release: LPS-treated; for IC50: Rattus norvegicus, inhibition of LPS-induced cytokine release, read-out: IL-6 IC50. The method, then:
as §1, §2, §3

For another data set, the system named is IL-4. In words: IL-4 release in supernatants of LPS-treated primary microglial cells (ELISA). The settings on record: 72 h; for IL-4 release: LPS-treated; for IC50: Rattus norvegicus, inhibition of LPS-induced cytokine release, read-out: IL-4 IC50. As for the experimental part: as §1, §2
as §3, with “The compounds were serially diluted in complete culture medium with two-fold dilutions (100, 50, 25, 12.5, 6.25, 3.12 and 1.56 μg/mL for in vitro cytotoxicity; 12.5, 6.25, 3.12, 1.56, 0.78 and 0.39 μg/mL for cytokine release).” left out

A short description of data set [1]: MTT cytotoxicity assay on primary microglial cell cultures. The settings on record: Wistar, rat, mean of triplicate. As for the experimental part:
Primary microglial cell cultures were prepared from brains of newborn Wistar rats. Ethics approval for the experiments was granted by the EBIOTEC Review Board (Valter Lombardi, Iván Carrera and Lucía Fernández-Novoa; Project Identification Code: Sinularia Project October 2013; approved 30 October 2013). The neocortex of one-day-old postnatal rats was aseptically dissected out, and the meninges and blood vessels were carefully removed. Following cutting in a medium containing 20% horse serum, the suspension was filtered through a […] and transferred as a single cell suspension to culture dishes, using 5.0 mL of medium per dish. The cultures were incubated at 37 °C in an atmosphere containing 5% CO2. The culture medium consisted of Minimum Essential Medium Eagle, supplemented with L-glutamine, amino acids, vitamins, penicillin, gentamicin, sodium bicarbonate and 20% heat-inactivated horse serum. The medium was changed twice a week. After 1 week, the concentration of horse serum was reduced to 10%. After sixteen days in culture, cells were treated with 1 μg/mL of lipopolysaccharide (LPS). After six hours, different concentrations (1.0 μg/mL, 2.5 μg/mL and 5.0 μg/mL) of Compounds 1–4 and 6 were added to each well, and plates were incubated for 72 h at 37 °C in an atmosphere containing 5% CO2. Positive controls were treated only with LPS, while negative controls were treated with complete medium. After 72 h of incubation, cells were counted, and 2.5 mL of the supernatants were collected from each well and frozen at −40 °C for cytokine analyses. All experiments were carried out twice.
The cytotoxicity of the compounds was measured by the colorimetric methyl thiazol tetrazolium (MTT) assay and scored as a percentage of the absorbance reduction of treated cultures versus untreated control cultures. Primary microglial cell cultures were seeded into 96-well microplates at 10^4 cells per well and allowed to grow for 24 h. The initial concentration of Compounds 1–4 and 6 was 100 μg/mL in DMSO. The compounds were serially diluted in complete culture medium with two-fold dilutions (100, 50, 25, 12.5, 6.25, 3.12 and 1.56 μg/mL for in vitro cytotoxicity; 12.5, 6.25, 3.12, 1.56, 0.78 and 0.39 μg/mL for cytokine release). Different concentrations of the compounds were added to each well, and Tamoxifen was used as a positive control, with concentrations ranging from 50 to 1.56 μg/mL. Plates were incubated at 37 °C for 72 h under 5% CO2 atmosphere. Then, the 50 μL of MTT-PBS solution in culture medium were added to each well. The plates were further incubated for 4 h under the same conditions. The medium was then removed and replaced with 200 μL of DMSO to solubilize the MTT formazan product. The solutions were shaken for 20 min, and the absorbance was measured at 570 nm. […] Each value represents the mean of triplicate determinations. The IC50 values were calculated from the compound concentration-response curves.
In general terms: Tetrazolium assays rely on reduction of a dye to a coloured formazan, in cell work by metabolically active cells.

Values after ≈ are worked out from the molar mass of the structure shown. Bounds are passed on as bounds.

As a reminder, the IC50 is the midpoint of a concentration-inhibition curve. In the case of `C=C(C)[C@@H]1CC(=O)[C@H]2[C@H](C1)[C@@H]1C(=O)O[C@@H]3C[C@@]4(C)O[C@H]2C(=O)[C@@H]4[C@H]13` [Compound 6, ineleganolide], the values for the IL-1β release in the data set with IL-1β (C1: 1.0 μg/mL), in the data set with IL-1β (C2: 2.5 μg/mL) and in the data set with IL-1β (C3: 5.0 μg/mL) were 1.07 ± 0.07 pg/mL, 1.1 ± 0.05 pg/mL and 1.09 ± 0.02 pg/mL, respectively. Besides, the IC50 with IL-1β, with IL-6 and in the data set with IL-4 was greater than 12.5 µg/mL throughout. Moreover, the IL-6 release with IL-6 (C1: 1.0 μg/mL) is given as 13.2 ± 0.2 pg/mL; in the data set on IL-6 (C2: 2.5 μg/mL) it was 12.1 ± 0.9 pg/mL; with IL-6 (C3: 5.0 μg/mL), 11.8 ± 1.2 pg/mL. Also, the IL-4 release was found to be 1.8 ± 0.6 pg/mL in the data set with IL-4 (C1: 1.0 μg/mL), 1.9 ± 0.6 pg/mL in the data set on IL-4 (C2: 2.5 μg/mL) and 1.9 ± 0.9 pg/mL in the data set with IL-4 (C3: 5.0 μg/mL). In addition, the IC50 at 72 h in data set [1] was greater than 100 µg/mL.
In the case of `C=C(C)[C@@H]1C/C=C2\C(=O)O[C@@H](C[C@]3(C)CC(=O)[C@H](CC(=O)C1)O3)[C@@H]2O` [Compound 1, 5-epi-sinuleptolide], the IL-1β release in the data set on IL-1β (C1: 1.0 μg/mL) was 1.04 ± 0.08 pg/mL; in the data set on IL-1β (C2: 2.5 μg/mL), 1.09 ± 0.1 pg/mL; in the data set on IL-1β (C3: 5.0 μg/mL) it was 1.08 ± 0.05 pg/mL. For the same compound, the IC50 with IL-1β, in the data set with IL-6 and in the data set on IL-4 was greater than 12.5 µg/mL throughout. Also, the IL-6 release with IL-6 (C1: 1.0 μg/mL) stood at 14.2 ± 1.8 pg/mL; in the data set with IL-6 (C2: 2.5 μg/mL), 11.7 ± 1.2 pg/mL; in the data set on IL-6 (C3: 5.0 μg/mL), 13.5 ± 1.4 pg/mL. Moreover, the IL-4 release was 1.9 ± 0.9 pg/mL in the data set on IL-4 (C1: 1.0 μg/mL), 2.1 ± 0.8 pg/mL in the data set on IL-4 (C2: 2.5 μg/mL) and 1.9 ± 0.4 pg/mL with IL-4 (C3: 5.0 μg/mL). In addition, the IC50 at 72 h in data set [1] is greater than 100 µg/mL.
As for `C=C(C)[C@@H]1C/C=C2\C(=O)O[C@@H](C[C@]3(C)CC(=O)[C@@H](CC(=O)C1)O3)[C@@H]2O` [Compound 2, sinuleptolide], the IL-1β release in the data set on IL-1β (C1: 1.0 μg/mL) came to 1.08 ± 0.02 pg/mL; in the data set on IL-1β (C2: 2.5 μg/mL), 0.07 ± 0.04 pg/mL; in the data set on IL-1β (C3: 5.0 μg/mL) it was 0.08 ± 0.06 pg/mL. Moreover, the IC50 in the data set on IL-1β was determined as 0.5 µg/mL (≈ 1.44 µM); in the data set on IL-6 it was 2.2 µg/mL (≈ 6.31 µM); in the data set on IL-4, 0.5 µg/mL (≈ 1.44 µM). For the same compound, the IL-6 release in the data set with IL-6 (C1: 1.0 μg/mL) is recorded as 12.1 ± 0.9 pg/mL; in the data set with IL-6 (C2: 2.5 μg/mL) it was 7.8 ± 1.4 pg/mL; in the data set on IL-6 (C3: 5.0 μg/mL), 8.5 ± 1.3 pg/mL. The IL-4 release with IL-4 (C1: 1.0 μg/mL) was found to be 2.1 ± 0.9 pg/mL; with IL-4 (C2: 2.5 μg/mL), 15.5 ± 2.3 pg/mL; in the data set on IL-4 (C3: 5.0 μg/mL), 18.4 ± 1.8 pg/mL. In data set [1], this compound had an IC50 at 72 h greater than 100 µg/mL.
With `C=C(C)C1CCC23OC2C(CC2(C)CC(=O)C(CC(=O)C1)O2)OC3=O` (stereo not shown) [Compound 3, scabrolide D], the results for the IL-1β release with IL-1β (C1: 1.0 μg/mL), with IL-1β (C2: 2.5 μg/mL) and in the data set with IL-1β (C3: 5.0 μg/mL) were 1.1 ± 0.05 pg/mL, 1.3 ± 0.06 pg/mL and 1.2 ± 0.05 pg/mL, respectively. The IC50 in the data set with IL-1β, in the data set with IL-6 and in the data set on IL-4 was greater than 12.5 µg/mL in each case. Further, the IL-6 release with IL-6 (C1: 1.0 μg/mL) was 12.9 ± 1.1 pg/mL; in the data set on IL-6 (C2: 2.5 μg/mL), 11.5 ± 1.3 pg/mL; in the data set on IL-6 (C3: 5.0 μg/mL) it was 13.2 ± 1.2 pg/mL. In addition, the figures for the IL-4 release with IL-4 (C1: 1.0 μg/mL), with IL-4 (C2: 2.5 μg/mL) and in the data set on IL-4 (C3: 5.0 μg/mL) were 1.5 ± 0.9 pg/mL, 1.6 ± 0.8 pg/mL and 1.7 ± 0.5 pg/mL, respectively. The same compound came in with an IC50 at 72 h in data set [1] greater than 100 µg/mL.

These data come from publication PMC4113814, “Bioactive Cembrane Derivatives from the Indian Ocean Soft Coral, Sinularia kavarattiensis” (Marine Drugs, 2014).
